Reference: patent publication US20230391774A1, “Novel Compounds” (AC Immune SA, priority 2020, published 2023)
Where a name gives a salt, the structure may show the parent alone.

Columns and labels:
[1] = biological target: T1, flTau aggregates (longest isoform of human Tau, 2N4R) (Homo sapiens, UniProt P10636); experiment: Full-length Tau (flTau) disaggregation assay by Thioflavin T (ThT); type: biochemical; conditions: ThT fluorescence; 60 nM flTau aggregates, 30 minutes at RT; read-out: flTau disaggregation EC50
T1 construct: 35 μM of recombinant full-length (fl) Tau in phosphate-buffered saline (PBS) were aggregated; purchased Biotechne; host or cells: bacteria
Method: Full-Length Tau (flTau) Disaggregation Assay by Thioflavin T (ThT)
The longest isoform of human Tau (2N4R; 441 amino acids) was expressed in bacteria and purified (Biotechne). For the Tau disaggregation assay by ThT, 35 μM of recombinant full-length (fl) Tau in phosphate-buffered saline (PBS) were aggregated for 72 hours at 37° C. in presence of 35 μM of heparin (Sigma-Aldrich) and 10 mM of […] (Sigma-Aldrich) under shaking at 1000 RPM. Compound 1 was dissolved in anhydrous dimethyl sulfoxide (DMSO, Sigma-Aldrich) to reach a concentration of 2.5 mM. flTau aggregates and serial dilutions of compound 1 were mixed together in PBS (volume 50 μL) to a final concentration of 60 nM of flTau aggregates and from 20 to 0.0012 μM of Compound 1. The mixture was incubated for 30 minutes at room temperature (RT), then 40 μL of this mixture were transferred into a black 384-well plate assay (Perkin-Elmer) and mixed with 10 μL of 20 μM ThT in 250 mM glycine (both from Sigma-Aldrich) in PBS. Fluorescence (relative fluorescence units; RFU) was measured in monoplicate or duplicate on a Tecan reader (excitation: 440 nm; emission: 485 nm). Percentage of flTau disaggregation was then calculated and the half maximal effective concentration (EC50) was determined using GraphPad Prism version 8 (GraphPad Software) assuming a one-binding site fitting model, see Table 3 and Table 4.

[2] = biological target: T2, Tau K18 fragment aggregates (amino acids 244 to 372 of human Tau441) (Homo sapiens, UniProt P10636); experiment: Tau K18 disaggregation assay by ThT; type: biochemical; conditions: ThT fluorescence; 2 μM K18 aggregates, 30 minutes at RT
T2 construct: encompassing amino acids 244 to 372 of the longest isoform (2N4R) of human Tau441; purchased Biotechne; host or cells: bacteria
Method: Tau K18 Disaggregation Assay by ThT
The Tau K18 fragment, encompassing amino acids 244 to 372 of the longest isoform (2N4R) of human Tau441, was expressed in bacteria and purified (Biotechne). For the K18 disaggregation assay by ThT, 35 μM of recombinant K18 in PBS were aggregated for 24 hours at 37° C. in presence of 25 μM of heparin (Sigma-Aldrich) and 10 mM of 1,4-Dithiothreito (DTT from Sigma-Aldrich) under shaking at 750 RPM. Compound 1 was dissolved in anhydrous dimethyl sulfoxide (DMSO, Sigma-Aldrich) to reach a concentration of 10 mM. K18 aggregates and serial dilutions of compounds were mixed together in PBS (volume 50 μL) to a final concentration of 2 μM of K18 aggregates and from 400 to 0.1 μM of Compound 1. The mixture was incubated for 30 minutes at room temperature (RT), then 40 μL of this mixture were transferred into a black 384-well plate assay (Perkin-Elmer) and mixed with 10 μL of 100 μM ThT in 250 mM glycine (both from Sigma-Aldrich) in PBS. Fluorescence (relative fluorescence units; RFU) was measured in monoplicate or duplicate on a Tecan reader (excitation: 440 nm; emission: 485 nm). Percentage of K18 disaggregation was then calculated and half maximal effective concentration (EC50) was determined using GraphPad Prism version 8 (GraphPad Software) assuming a one-binding site fitting model, see Table 3 and Table 4.

T2 sequence (P10636 561-689): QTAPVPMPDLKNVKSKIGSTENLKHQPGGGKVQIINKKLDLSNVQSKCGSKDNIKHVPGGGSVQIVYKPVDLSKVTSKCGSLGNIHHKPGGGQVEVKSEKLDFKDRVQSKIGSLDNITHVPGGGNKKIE
T1 sequence (P10636 1-441 isoform P10636-8): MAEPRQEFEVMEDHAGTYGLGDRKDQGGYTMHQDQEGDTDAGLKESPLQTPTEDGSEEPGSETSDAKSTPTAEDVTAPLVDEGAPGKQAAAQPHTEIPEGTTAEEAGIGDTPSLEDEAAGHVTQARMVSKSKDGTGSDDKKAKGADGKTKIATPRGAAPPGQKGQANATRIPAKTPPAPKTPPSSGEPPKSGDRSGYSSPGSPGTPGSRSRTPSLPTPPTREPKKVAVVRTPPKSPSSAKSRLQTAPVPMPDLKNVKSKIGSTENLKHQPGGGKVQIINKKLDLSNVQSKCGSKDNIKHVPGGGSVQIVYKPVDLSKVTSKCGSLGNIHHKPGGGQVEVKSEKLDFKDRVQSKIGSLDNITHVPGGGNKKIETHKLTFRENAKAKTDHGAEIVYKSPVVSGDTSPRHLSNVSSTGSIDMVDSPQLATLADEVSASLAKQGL

Structure (SMILES)	EC50 [1]	EC50 [2]
c1ccc2c(C3CCN(c4ccc5oc(N6CCOCC6)nc5n4)CC3)n[nH]c2c1 [Example 43, 5-(4-(1H-indazol-3-yl)piperidin-1-yl)-2-morpholinooxazolo[4,5-b]pyridine]	1 to 10 µM	1 to 10 µM
c1ccc2c(C3CCN(c4cnc5nc(N6CCOCC6)sc5c4)CC3)n[nH]c2c1 [Example 41, 4-(6-(4-(1H-indazol-3-yl)piperidin-1-yl)thiazolo[4,5-b]pyridin-2-yl)morpholine]	1 to 10 µM	1 to 10 µM
COc1ccc2c(C3CCN(c4ccc5oc(N6CCOCC6)nc5c4)CC3)c[nH]c2n1 [Example 104, 5-(4-(6-methoxy-1H-pyrrolo[2,3-b]pyridin-3-yl)piperidin-1-yl)-2-morpholinobenzo[d]oxazole]	1 to 10 µM	1 to 10 µM
Cn1cc(C2=CCN(c3ccc4oc(N5CCOCC5)nc4c3)CC2)c2cc(F)cnc21 [Example 32, 5-(4-(5-fluoro-1-methyl-1H-pyrrolo[2,3-b]pyridin-3-yl)-3,6-dihydropyridin-1(2H)-yl)-2-morpholinobenzo[d]oxazole]	< 1 µM	1 to 10 µM
Cn1cc(C2CCN(c3cnc4nc(N5CCOCC5)sc4c3)CC2)c2cc(F)cnc21 [Example 109, 4-(6-(4-(5-fluoro-1-methyl-1H-pyrrolo[2,3-b]pyridin-3-yl)piperidin-1-yl)thiazolo[4,5-b]pyridin-2-yl)morpholine hydrochloride]	1 to 10 µM	10 to 50 µM
O=C(Nc1ccc2nc(N3CCOCC3)sc2c1)c1c[nH]c2ccc(F)cc12 [Example 17, 5-fluoro-N-(2-morpholinobenzo[d]thiazol-6-yl)-1H-indole-3-carboxamide]	< 1 µM	1 to 10 µM
c1ccc2c(C3CCN(c4cc5nc(N6CCOCC6)sc5cn4)CC3)n[nH]c2c1 [Example 66, 4-(6-(4-(1H-indazol-3-yl)piperidin-1-yl)thiazolo[5,4-c]pyridin-2-yl)morpholine]	–	< 1 µM
O=C(Nc1c[nH]c2ccccc12)c1ccc2oc(N3CCOCC3)nc2c1 [Example 7, N-(1H-indol-3-yl)-2-morpholinobenzo[d]oxazole-5-carboxamide]	< 1 µM	< 1 µM
Cn1cc(C2CCN(c3ccc4oc(N5CCOCC5)nc4c3)C2)c2cc(F)cnc21 (centres unmarked) [Example 33, 5-(3-(5-fluoro-1-methyl-1H-pyrrolo[2,3-b]pyridin-3-yl)pyrrolidin-1-yl)-2-morpholinobenzo[d]oxazole]	1 to 10 µM	1 to 10 µM
c1ccc2c(C3CCN(c4ccc5nc(N6CCOCC6)sc5n4)CC3)c[nH]c2c1 [Example 108, 4-(5-(4-(1H-indol-3-yl)piperidin-1-yl)thiazolo[5,4-b]pyridin-2-yl)morpholine hydrochloride]	–	10 to 50 µM
c1ccc2c(C3CCN(c4ccc5sc(N6CCOCC6)nc5n4)CC3)n[nH]c2c1 [Example 62, 4-(5-(4-(1H-indazol-3-yl)piperidin-1-yl)thiazolo[4,5-b]pyridin-2-yl)morpholine]	–	1 to 10 µM
c1ccc2c(C3CCN(c4ccc5sc(N6CCOCC6)nc5c4)CC3)n[nH]c2c1 [Example 63, 4-(5-(4-(1H-indazol-3-yl)piperidin-1-yl)benzo[d]thiazol-2-yl)morpholine]	–	10 to 50 µM
c1ccn2c(C3CCN(c4ccc5nc(N6CCOCC6)oc5c4)CC3)cnc2c1 [Example 59, 6-(4-(imidazo[1,2-a]pyridin-3-yl)piperidin-1-yl)-2-morpholinobenzo[d]oxazole]	–	1 to 10 µM
c1cc2[nH]cc(C3CCN(c4ccc5oc(N6CCOCC6)nc5c4)CC3)c2cn1 [Example 55, 5-(4-(1H-pyrrolo[3,2-c]pyridin-3-yl)piperidin-1-yl)-2-morpholinobenzo[d]oxazole]	–	1 to 10 µM
O=C(Nc1ccc2nc(N3CCOCC3)oc2c1)c1c[nH]c2ncccc12 [Example 15, N-(2-morpholinobenzo[d]oxazol-6-yl)-1H-pyrrolo[2,3-b]pyridine-3-carboxamide]	–	10 to 50 µM
Fc1ccc2[nH]cc(C3CCN(c4ccc5oc(N6CCOCC6)nc5c4)CC3)c2c1 [Example 69, 5-(4-(5-fluoro-1H-indol-3-yl)piperidin-1-yl)-2-morpholinobenzo[d]oxazole]	–	1 to 10 µM
c1ccc2c(C3CCN(c4cc5oc(N6CCOCC6)nc5cn4)CC3)c[nH]c2c1 [Example 58, 6-(4-(1H-indol-3-yl)piperidin-1-yl)-2-morpholinooxazolo[4,5-c]pyridine]	–	10 to 50 µM
Cn1cc(C#Cc2ccc3oc(N4CCOCC4)nc3c2)c2cc(F)cnc21 [Example 46, 5-((5-fluoro-1-methyl-1H-pyrrolo[2,3-b]pyridin-3-yl)ethynyl)-2-morpholinobenzo[d]oxazole]	1 to 10 µM	1 to 10 µM
Cn1cc(C2CCN(c3ccc4oc(N5CCOCC5)nc4c3)CC2)c2cc(F)ccc21 [Example 51, 5-(4-(5-fluoro-1-methyl-1H-indol-3-yl)piperidin-1-yl)-2-morpholinobenzo[d]oxazole]	1 to 10 µM	10 to 50 µM
c1ccc2c(C3CCN(c4ccc5nc(N6CCOCC6)oc5n4)CC3)n[nH]c2c1 [Example 64, 5-(4-(1H-indazol-3-yl)piperidin-1-yl)-2-morpholinooxazolo[5,4-b]pyridine]	–	1 to 10 µM
Cn1cc(C2CC3CN(c4ccc5oc(N6CCOCC6)nc5c4)CC3C2)c2cc(F)cnc21 (centres unmarked) [Example 112, 5-(5-(5-fluoro-1-methyl-1H-pyrrolo[2,3-b]pyridin-3-yl)hexahydrocyclopenta[c]pyrrol-2(1H)-yl)-2-morpholinobenzo[d]oxazole hydrochloride]	–	1 to 10 µM
c1ccc2c(-c3cnn(-c4ccc5oc(N6CCOCC6)nc5c4)c3)c[nH]c2c1 [Example 9, 5-(4-(1H-indol-3-yl)-1H-pyrazol-1-yl)-2-morpholinobenzo[d]oxazole]	< 1 µM	< 1 µM
c1ccc2c(C3CCN(c4cnc5sc(N6CCOCC6)nc5c4)CC3)n[nH]c2c1 [Example 42, 4-(6-(4-(1H-indazol-3-yl)piperidin-1-yl)thiazolo[5,4-b]pyridin-2-yl)morpholine]	–	10 to 50 µM
c1cc2c(C3CCN(c4ccc5oc(N6CCOCC6)nc5c4)CC3)c[nH]c2cn1 [Example 54, 5-(4-(1H-pyrrolo[2,3-c]pyridin-3-yl)piperidin-1-yl)-2-morpholinobenzo[d]oxazole]	–	10 to 50 µM
O=C(Nc1ccc2nc(N3CCOCC3)oc2c1)c1n[nH]c2ccccc12 [Example 16, N-(2-morpholinobenzo[d]oxazol-6-yl)-1H-indazole-3-carboxamide]	–	10 to 50 µM
c1ccc2c(C3CCN(c4cc5nc(N6CCOCC6)sc5cn4)CC3)c[nH]c2c1 [Example 67, 4-(6-(4-(1H-indol-3-yl)piperidin-1-yl)thiazolo[5,4-c]pyridin-2-yl)morpholine]	–	< 1 µM
c1ccc2c(C3CCN(c4cnc5sc(N6CCOCC6)nc5c4)CC3)c[nH]c2c1 [Example 65, 4-(6-(4-(1H-indol-3-yl)piperidin-1-yl)thiazolo[5,4-b]pyridin-2-yl)morpholine]	–	1 to 10 µM
Cn1cc(C2CCN(c3ccc4nc(N5CCOCC5)sc4n3)CC2)c2cc(F)cnc21 [Example 57, 4-(5-(4-(5-fluoro-1-methyl-1H-pyrrolo[2,3-b]pyridin-3-yl)piperidin-1-yl)thiazolo[5,4-b]pyridin-2-yl)morpholine]	–	10 to 50 µM
c1ccc2c(C3CCN(c4ccc5nc(N6CCOCC6)oc5c4)CC3)c[nH]c2c1 [Example 52, 6-(4-(1H-indol-3-yl)piperidin-1-yl)-2-morpholinobenzo[d]oxazole]	–	10 to 50 µM
Fc1cnc2c(C3CCN(c4ccc5oc(N6CCOCC6)nc5c4)CC3)c[nH]c2c1 [Example 53, 5-(4-(6-fluoro-1H-pyrrolo[3,2-b]pyridin-3-yl)piperidin-1-yl)-2-morpholinobenzo[d]oxazole]	–	1 to 10 µM
